Results: ChEMBL document CHEMBL1201862, “PubChem BioAssay data set” (2004)
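A five-concentration, 48-hour dose response in 96-well plates underlies each endpoint, interpolated linearly between surrounding concentrations. GI50 = concentration required for 50% inhibition of growth.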 The source made the active and inactive calls. No stated cut-off is given here; in the data, active = GI50 up to about 1.1 µM and inactive = higher.

Assays:
Experiment in all cases: NCI anticancer screen, dose series, 48 h
786-0 = system: 786-0
A498 = system: A498
A549 = system: A549
ACHN = system: ACHN
BT-549 = system: BT-549
CAKI-1 = system: CAKI-1
CCRF-CEM = system: CCRF-CEM
COLO 205 = system: COLO 205
DU-145 = system: DU-145
EKVX = system: EKVX
HCC 2998 = system: HCC 2998
HCT-116 = system: HCT-116
HL-60 = system: HL-60
HOP-62 = system: HOP-62
HOP-92 = system: HOP-92
HT-29 = system: HT-29
IGROV-1 = system: IGROV-1
K562 = system: K562
KM12 = system: KM12
LOX IMVI = system: LOX IMVI
M14 = system: M14
MCF7 = system: MCF7
MDA-MB-231 = system: MDA-MB-231
MDA-MB-435 = system: MDA-MB-435
MDA-N = system: MDA-N
MOLT-4 = system: MOLT-4
NCI-H226 = system: NCI-H226
NCI-H23 = system: NCI-H23
NCI-H522 = system: NCI-H522
NCI/ADR-RES = system: NCI/ADR-RES
OVCAR-3 = system: OVCAR-3
OVCAR-4 = system: OVCAR-4
OVCAR-5 = system: OVCAR-5
OVCAR-8 = system: OVCAR-8
PC-3 = system: PC-3
RPMI-8226 = system: RPMI-8226
RXF 393 = system: RXF 393
SF-295 = system: SF-295
SF-539 = system: SF-539
SK-MEL-28 = system: SK-MEL-28
SK-MEL-2 = system: SK-MEL-2
SK-MEL-5 = system: SK-MEL-5
SK-OV-3 = system: SK-OV-3
SN12C = system: SN12C
SNB-19 = system: SNB-19
SNB-75 = system: SNB-75
SR = system: SR
SW-620 = system: SW-620
U-251 = system: U-251
UACC-257 = system: UACC-257
UACC-62 = system: UACC-62
UO-31 = system: UO-31
HCT-15 = system: HCT-15
SF-268 = system: SF-268
TK-10 = system: TK-10

COc1nc2c(c(=O)n1C)N=C(c1ccccc1)[C@H](C(CC(=O)c1ccccc1)c1ccccc1)C(c1ccccc1)N2 (stereo partly specified)
GI50 (786-0): 76.4 µM (inactive)
GI50 (A498): > 100 µM (inactive)
GI50 (A549): 32.3 µM (inactive)
GI50 (ACHN): 50.4 µM (inactive)
GI50 (BT-549): > 100 µM (inactive)
GI50 (CAKI-1): 27 µM (inactive)
GI50 (CCRF-CEM): > 100 µM (inactive)
GI50 (COLO 205): 98.9 µM (inactive)
GI50 (DU-145): > 100 µM (inactive)
GI50 (EKVX): 22.2 µM (inactive)
GI50 (HCC 2998): 83.8 µM (inactive)
GI50 (HCT-116): 88.1 µM (inactive)
GI50 (HL-60): 38.4 µM (inactive)
GI50 (HOP-62): > 100 µM (inactive)
GI50 (HOP-92): > 100 µM (inactive)
GI50 (HT-29): 44.7 µM (inactive)
GI50 (IGROV-1): 49.3 µM (inactive)
GI50 (K562): 55.5 µM (inactive)
GI50 (KM12): 30.8 µM (inactive)
GI50 (LOX IMVI): > 100 µM (inactive)
GI50 (M14): > 100 µM (inactive)
GI50 (MCF7): 36.1 µM (inactive)
GI50 (MDA-MB-231): 16.2 µM (inactive)
GI50 (MDA-MB-435): > 100 µM (inactive)
GI50 (MDA-N): 35.8 µM (inactive)
GI50 (MOLT-4): 19.5 µM (inactive)
GI50 (NCI-H226): 69.2 µM (inactive)
GI50 (NCI-H23): > 100 µM (inactive)
GI50 (NCI-H522): 25.9 µM (inactive)
GI50 (NCI/ADR-RES): 39.6 µM (inactive)
GI50 (OVCAR-3): > 100 µM (inactive)
GI50 (OVCAR-4): 20.1 µM (inactive)
GI50 (OVCAR-5): > 100 µM (inactive)
GI50 (OVCAR-8): 54.5 µM (inactive)
GI50 (PC-3): 42 µM (inactive)
GI50 (RPMI-8226): 36.7 µM (inactive)
GI50 (RXF 393): 28.5 µM (inactive)
GI50 (SF-295): 70 µM (inactive)
GI50 (SF-539): > 100 µM (inactive)
GI50 (SK-MEL-28): > 100 µM (inactive)
GI50 (SK-MEL-2): > 100 µM (inactive)
GI50 (SK-MEL-5): 60.8 µM (inactive)
GI50 (SK-OV-3): > 100 µM (inactive)
GI50 (SN12C): 44.7 µM (inactive)
GI50 (SNB-19): > 100 µM (inactive)
GI50 (SNB-75): 10 µM (inactive)
GI50 (SR): 78 µM (inactive)
GI50 (SW-620): > 100 µM (inactive)
GI50 (U-251): > 100 µM (inactive)
GI50 (UACC-257): > 100 µM (inactive)
GI50 (UACC-62): > 100 µM (inactive)
GI50 (UO-31): 38.2 µM (inactive)

CCOC(=O)C(O)(NC(=O)NC(O)(C(=O)OCC)C(F)(F)F)C(F)(F)F (stereo unspecified)
GI50 (786-0): > 100 µM (inactive)
GI50 (A498): > 100 µM (inactive)
GI50 (ACHN): > 100 µM (inactive)
GI50 (CCRF-CEM): > 100 µM (inactive)
GI50 (COLO 205): > 100 µM (inactive)
GI50 (HCC 2998): > 100 µM (inactive)
GI50 (HCT-116): > 100 µM (inactive)
GI50 (HCT-15): > 100 µM
GI50 (HL-60): > 100 µM (inactive)
GI50 (HT-29): > 100 µM (inactive)
GI50 (K562): > 100 µM (inactive)
GI50 (LOX IMVI): > 100 µM (inactive)
GI50 (MDA-N): > 100 µM (inactive)
GI50 (MOLT-4): > 100 µM (inactive)
GI50 (NCI-H23): > 100 µM (inactive)
GI50 (NCI/ADR-RES): > 100 µM (inactive)
GI50 (OVCAR-5): > 100 µM (inactive)
GI50 (PC-3): > 100 µM (inactive)
GI50 (RPMI-8226): > 100 µM (inactive)
GI50 (RXF 393): > 100 µM (inactive)
GI50 (SF-268): > 100 µM (inactive)
GI50 (SF-539): > 100 µM (inactive)
GI50 (SK-MEL-28): > 100 µM (inactive)
GI50 (SK-MEL-2): > 100 µM (inactive)
GI50 (SK-OV-3): > 100 µM (inactive)
GI50 (SN12C): > 100 µM (inactive)
GI50 (SNB-19): > 100 µM (inactive)
GI50 (SNB-75): > 100 µM (inactive)
GI50 (SR): > 100 µM (inactive)
GI50 (U-251): > 100 µM (inactive)
GI50 (UACC-257): > 100 µM (inactive)
GI50 (UO-31): > 100 µM (inactive)

COc1cc2c[n+](C)c3c4cc(OC)c(OC)cc4ccc3c2cc1OC
GI50 (786-0): > 58.5 µM (inactive)
GI50 (A498): > 100 µM (inactive)
GI50 (A549): 58.7 µM (inactive)
GI50 (BT-549): 20.4 µM (inactive)
GI50 (CCRF-CEM): 18.8 µM (inactive)
GI50 (COLO 205): 11.8 µM (inactive)
GI50 (DU-145): 25 µM (inactive)
GI50 (EKVX): > 63 µM (inactive)
GI50 (HCT-116): 68.5 µM (inactive)
GI50 (HOP-62): 97.7 µM (inactive)
GI50 (IGROV-1): 23 µM (inactive)
GI50 (K562): 16.6 µM (inactive)
GI50 (LOX IMVI): 54 µM (inactive)
GI50 (MDA-MB-435): > 85.7 µM (inactive)
GI50 (NCI-H522): 7.11 µM (inactive)
GI50 (OVCAR-3): 29.3 µM (inactive)
GI50 (OVCAR-4): > 38.5 µM (inactive)
GI50 (OVCAR-5): > 100 µM (inactive)
GI50 (PC-3): 74.1 µM (inactive)
GI50 (RPMI-8226): 57.1 µM (inactive)
GI50 (SF-295): 69 µM (inactive)
GI50 (SK-MEL-5): 32 µM (inactive)
GI50 (SK-OV-3): 88.9 µM (inactive)
GI50 (SW-620): > 66.1 µM (inactive)
GI50 (TK-10): > 100 µM (inactive)
GI50 (UACC-257): 74.1 µM (inactive)
GI50 (UACC-62): > 82.8 µM (inactive)
